Measurements as given in patent US20090253671A1, “TRICYCLIC DERIVATIVES OF AZETIDINE AND PYRROLE WITH ANTIBACTERIAL ACTIVITY” (ASTRAZENECA AB, priority 2005, published 2009).
Converted amounts (≈) assume the structure as drawn.

Assays:
Test in all cases: Bacterial susceptibility testing in liquid media (MIC)
Type in all cases: cell-based
HIN446 = settings: strain HIN446; lowest concentration reducing growth by 80% or more, 37 degrees C., 24 hrs
Experimental: (§1) Compounds were tested for antimicrobial activity by susceptibility testing in liquid media. Compounds were dissolved in dimethylsulfoxide and tested in 10 doubling dilutions in the susceptibility assays. The organisms used in the assay were grown overnight on suitable agar media and then suspended in a liquid medium appropriate for the growth of the organism. The suspension was a 0.5 McFarland and a further 1 in 10 dilution was made into the same liquid medium to prepare the final organism suspension in 100 μL. Plates were incubated under appropriate conditions at 37 degrees C. for 24 hrs prior to reading. The Minimum Inhibitory Concentration was determined as the lowest drug concentration able to reduce growth by 80% or more.

SAU516 = settings: strain SAU516; lowest concentration reducing growth by 80% or more, 37 degrees C., 24 hrs
Experimental: as §1

Streptococcus pneumoniae = settings: lowest concentration reducing growth by 80% or more, 37 degrees C., 24 hrs; for MIC SPN548: strain SPN548
Experimental: as §1

Row | SMILES | MIC HIN446 (HIN446) | MIC SAU516 (SAU516) | MIC (Streptococcus pneumoniae; against Streptococcus pneumoniae) | MIC SPN548 (Streptococcus pneumoniae)
1 | CONC(=O)c1cc(N2CC(NC(=O)c3[nH]c(C)c(Cl)c3Cl)C2)nc(Cl)n1 [Example 9, 2-Chloro-6-(3-{[(3,4-dichloro-5-methyl-1H-pyrrol-2-yl)carbonyl]amino}azetidin-1-yl)-N-methoxypyrimidine-4-carboxamide] | 4 µg/mL (≈ 9.22 µM) | 2 µg/mL (≈ 4.61 µM) | 2 µg/mL (≈ 4.61 µM) | 2 µg/mL (≈ 4.61 µM)
2 | CONC(=O)c1cnc(N2CC(NC(=O)c3[nH]c(C)c(Cl)c3Cl)C2)s1 [Example 8, 2-(3-{[(3,4-Dichloro-5-methyl-1H-pyrrol-2-yl)carbonyl]amino}azetidin-1-yl)-N-methoxy-1,3-thiazole-5-carboxamide] | 8 µg/mL (≈ 19.8 µM) | 8 µg/mL (≈ 19.8 µM) |  | 1 µg/mL (≈ 2.47 µM)
3 | Cc1nc(N2CC(NC(=O)c3[nH]c(C)c(Cl)c3Cl)C2)sc1C(=O)O [Example 5, 2-(3-{[(3,4-Dichloro-5-methyl-1H-pyrrol-2-yl)carbonyl]amino}azetidin-1-yl)-4-methyl-1,3-thiazole-5-carboxylic acid] | 0.5 µg/mL (≈ 1.28 µM) | 4 µg/mL (≈ 10.3 µM) |  | 0.5 µg/mL (≈ 1.28 µM)
4 | Cc1[nH]c(C(=O)NC2CN(c3ncc(C(=O)O)s3)C2)c(Cl)c1Cl [Example 4, 2-(3-{[(3,4-Dichloro-5-methyl-1H-pyrrol-2-yl)carbonyl]amino}azetidin-1-yl)-1,3-thiazole-5-carboxylic acid] | 2 µg/mL (≈ 5.33 µM) | 32 µg/mL (≈ 85.3 µM) |  | 4 µg/mL (≈ 10.7 µM)
